In US20220265847A1, “METHODS AND COMPOSITIONS FOR TREATING NON-SMALL CELL LUNG CANCER” (Board of Regents, The University of Texas System, priority 2019, published 2022):

B1: soluble CD27: recombinant soluble CD27, the binding partner of CD70 (protein, UniProt P26842 20-191, looked up)
extracellular domain: ATPAPKSCPERHYWAQGKLCCQMCEPGTFLVKDCDQHRKAAQCDPCIPGVSFSPDHHTRPHCESCRHCNSGLLVRNCTITANAECACRNGWQCRDKECTECDPLPNPSLTARSSQALSPHPQPTHLPYVSEMLEARTAGHMQTLADFRQLPARTLSTHWPPQRSLCSSDFIR
modifications: extracellular domain
B2: vorsetuzumab-MMAE (conjugate, chains of the INN, looked up)
VH: QVQLVQSGAEVKKPGASVKVSCKASGYTFTNYGMNWVRQAPGQGLKWMGWINTYTGEPTYADAFKGRVTMTRDTSISTAYMELSRLRSDDTAVYYCARDYGDYGMDYWGQGTTVTVSS
VL: DIVMTQSPDSLAVSLGERATINCRASKSVSTSGYSFMHWYQQKPGQPPKLLIYLASNLESGVPDRFSGSGSGTDFTLTISSLQAEDVAVYYCQHSREVPWTFGQGTKVEIK
modifications: MMAE payload

Columns and labels:
Format in all cases: cell-based
[1] = test system: HCC827 (EGFR mutant) cells; assay: Sensitivity of HCC827 parental cells to EGFR TKIs compared to EGFR TKI resistant (ER) variants; settings: FIG. 1
[2] = test system: HCC4006 (EGFR mutant) cells; assay: Sensitivity of HCC4006 parental cells to EGFR TKIs compared to EGFR TKI resistant (ER) variants; settings: FIG. 1
Excerpt: While EGFR mutant NSCLC patients are initially responsive to EGFR tyrosine kinase inhibitors (TKI), resistant disease inevitably emerges. The inventors derived a panel of NSCLC cell lines with acquired resistance to EGFR TKIs. […] CD70 is typically expressed on T-cells and B-cells, but can also be expressed by some malignant cells. Expression of CD70 by tumor cells is thought to contribute to an immunosuppressive environment by affecting/attracting regulatory T cells and promoting T cell apoptosis and exhaustion.
While EGFR mutant NSCLC patients are initially responsive to EGFR tyrosine kinase inhibitors (TKI), resistant disease inevitably emerges. The inventors derived a panel of NSCLC cell lines with acquired resistance to EGFR TKIs. […] Once tumors were visualized by CT imaging, doxycycline was withdrawn from a subset of animals to mimic EGFR inhibition. […] Tumors were collected an CD70 expression was analyzed by immunohistochemistry. […] Next, the inventors evaluated CD70 expression in EGFR mutant EGFRTKI naïve NSCLC clinical specimens and EGFR mutant NSCLC specimens collected after EGFR TKI resistance.

[3] = test system: HCC827 cells with induced expression of ZEB1; assay: EGFR TKI sensitivity of HCC827 cells after induced ZEB1 expression (EMT induction); settings: HCC827 (EGFR TKI sensitive) cells with induced ZEB1 expression; FIG. 4B-D / 10B
Excerpt: Next, the inventors investigated the impact of EMT on CD70 expression in EGFR mutant NSCLC cell lines. The inventors induced EMT through forced expression of ZEB1 in HCC827 parental (EGFR TKI sensitive) cells. […] The inventors next evaluated whether CD70 expression was associated with a mesenchymal phenotype in NSCLC cell lines and human lung adenocarcinomas using the TCGA database.

[4] = test system: HCC4006 osimertinib-resistant (OR) cells; assay: Soluble CD27 stimulation of CD70, downstream signalling by Western blotting; settings: FIG. 12
Method: FIG. 12. Stimulation of CD70 activates signal transduction pathways in EGFR TKI resistant cells. HCC4006 osimertinib-resistant (OR) cells were treated with soluble CD27, the binding partner of CD70, and the effect on downstream signal transduction pathways was evaluated by Western blotting.
Binding of CD27 to CD70 induces activation of signal transduction pathways downstream of CD70. To investigate the potential impact of CD70 signaling on EGFR TKI resistant cells, the inventors stimulated EGR TKI resistant cells with recombinant soluble CD27.

H1975 OR16 = assay: CD70 ADC relative cell viability; settings: H1975 OR16 vs H1975 parental (CD70 low); increasing concentrations; FIG. 14 and 16
Excerpt: (§1) FIG. 14A-C. CD70 antibody-drug conjugates (ADCs) target CD70+ EGFR TKI resistant cell in vitro.
(§2) To determine whether CD70 antibody drug conjugates (ADCs) are a valid approach for targeting EGFR TKI resistant cells, the inventors treated H1975 cells (CD70 low and EGFR TKI sensitive) and H1975 OR5 and H1975 OR16 (both EGFR TKI resistant and CD70 high) with increasing concentrations of the CD70 ADCs cuzatuzumab-MMAE or vorsetuzumab-MMAE. […] The inventors further observed an additive anti-tumor cell effect when osimertinib was combined with anti-CD70 ADCs. (FIG. 15).

H1975 OR5 = assay: CD70 ADC relative cell viability
Excerpt: as §1, §2

Molecule | sensitivity to EGFR TKI [1] | sensitivity to EGFR TKI [2] | sensitivity to EGFR TKI after ZEB1 expression [3] | effect on downstream signal transduction pathways [4] | sensitivity to CD70 ADC versus H1975 parental cells (H1975 OR16) | anti-tumor cell activity (relative cell viability) (H1975 OR5; H1975 OR5, CD70 high, EGFR TKI resistant, FIG. 14) | sensitivity to CD70 ADC versus H1975 parental cells (H1975 OR5; H1975 OR5 vs H1975 parental (CD70 low), increasing concentrations, FIG. 14 and 16)
C#Cc1cccc(Nc2ncnc3cc(OCCOC)c(OCCOC)cc23)c1 [erlotinib] | sensitive | sensitive | resistant |  |  |  | 
C=CC(=O)Nc1cc(Nc2nccc(-c3cn(C)c4ccccc34)n2)c(OC)cc1N(C)CCN(C)C [osimertinib] | sensitive | sensitive | resistant |  |  |  | 
B1 |  |  |  | phosphorylation of Akt and ERK |  |  | 
B2 |  |  |  |  | more sensitive | anti-tumor cell activity | more sensitive
